{"source": "patent US20120088667A1", "about": "“SAFENING AGENT” (priority 2009, published 2012)", "key": {"[1]": {"test_system": "Oilseed rape cv Excalibur", "details": "for Greenness (0-9) (9 = Deeper Green) + 14 Days / Vigour (0-9) (9 = Most Vigour) + 14 days / Greenness (0-9) + 28 Days / Vigour (0-9) + 28 Days: score 0-9", "description": "(§1) Safening systems were applied to crops of oilseed rape and winter treated with various herbicides (Bifenox (with insecticide), Carbetamide, Propaquizafop, Chlorotoluron, Isoproturon, Flumioxazin). The safening system and the herbicide were applied to the crops either simultaneously or sequentially.\n(§2) Oilseed rape: cv Excalibur, sown 26 Apr. 2008, at two seeds per 9 cm pot, sown in normal pH multi-purpose compost. Date of spraying: 6 June; Dates of measurement/scoring: 13 June, 20 June, 5 July. Winter wheat: cv Alchemy, sown 23 Apr. 2008, at seven seeds per 9 cm pot, sown in normal pH multi-purpose compost. Date of spraying: 24 May; Dates of measurement/scoring: 31 May, 7 June, 21 June. SAF: at least one from class (f) each at <3 g/l, plus at least one from class (c).\n(§3) Statistical Layout: Randomised Complete Block trials, under glasshouse conditions, United Kingdom."}, "[2]": {"test_system": "Maize cv Sundance (i.e. not Roundup Ready)", "details": "no glyphosate"}, "Glycine max (Soybean)": {"test_system": "Glycine max (Soybean)", "assay": "Root nodulation and safening, soybean, compost of normal pH (Example 7.2)", "details": "compost of normal pH (6.5)", "description": "The safener/safening system and the fertiliser were applied to the crops either simultaneously or sequentially.\nCo=100% Cobalt Sulphate (20 g per litre and per hectare). FF1=20 g per litre Cobalt Sulphate (as per Co above) plus “Miracle-Gro” at xl recommended rate (applied at 15 g per 2.5 sq metres). Miracle-Gro contains: 24% N, 4% P, 13% K, plus 0.02% B, 0.03% Cu, 0.19% Fe, 0.05% Mn, 0.001% Mo and 0.03% Zn. FF2=20 g per litre Cobalt Sulphate plus Miracle-Gro at ×2 recommended rate. SAF: at least one from class (f) each at <3 g/l, plus at least one from class (c).\nDates as per Example 7.1 above, but sown in compost of normal pH (6.5). Each treatment represents the mean values for 12 plants, within four replicates. Sowing density 110 kg/ha. Standard inoculant applied at sowing."}, "Winter Barley cv Saffron [3]": {"test_system": "Winter Barley cv Saffron", "details": "for Vigour (0-9) (9 = Most Vigour) + 14 days: score 0-9, 9 = Most Vigour; for Vigour (0-9) + 28 Days: score 0-9, +28 days", "description": "(§4) The safening system and the fungicide were applied to the crops either simultaneously or sequentially, either as foliar applications or as a seed treatment.\n(§5) Winter Barley: cv Saffron, sown 27 May 2008, at four/five seeds per 9 cm pot, sown in standard multi-purpose compost of pH 6.5. Date of spraying: 23 July; Dates of measurement/scoring: 30 July, 14 August, 22 August. Sprayed: mid-tillering phase (GS23). Winter Wheat: cv Limerick, sown 4 Jun. 2008, at four/five seeds per 9 cm pot, sown in standard multi-purpose compost of pH 6.5. Date of spraying: 23 July; Dates of measurement/scoring: 30 July, 14 August, 23 August. Sprayed: mid-tillering phase (GS23). Maize: cv Sundance, sown 25 May 2008, at 10 seeds per 25 cm pot, in John Innes No 1 compost. Date of measurement/assessment: 15 June. Seed treatment trial. Randomised block, mean of five replicates.\n(§6) SAF: at least one from class (f) each at <3 g/l, plus at least one from class (c)."}, "Winter Wheat cv Limerick": {"test_system": "Winter Wheat cv Limerick", "details": "+14 days", "description": "as §4, §5, §6"}, "Winter wheat cv Alchemy": {"test_system": "Winter wheat cv Alchemy", "assay": "Safening of herbicides (Chlorotoluron, Isoproturon, Flumioxazin), winter wheat", "description": "as §1, §2, §3"}, "Winter Barley cv Saffron [4]": {"test_system": "Winter Barley cv Saffron", "assay": "Safening of fertilisers, pot trial: phytotoxicity and vigour scores, winter barley", "type": "in vivo", "description": "(§7) The safening system and the fertilizer were applied either simultaneously or sequentially.\n(§8) Sprayed: mid-tillering phase (GS23). Winter Wheat: cv Limerick, sown 4 Jun. […] Sprayed: mid-tillering phase (GS23). Lettuce: cv Set, sown 10 Jul. 2008, at one seed per pot, in John Innes No 1 compost. Date of spraying: 30 July; Dates of measurement: 7 August, 14 August, 28 August. Sprayed: 2 true leaf stage."}, "Lettuce cv Set": {"test_system": "Lettuce cv Set", "assay": "Safening of fertilisers, pot trial: phytotoxicity and vigour scores, lettuce", "type": "in vivo", "description": "as §7, §8"}, "[5]": {"details": "herbicide Bifenox (with insecticide), Table 3.1"}, "[6]": {"details": "herbicides Carbetamide and Propaquizafop, Table 3.2"}, "[7]": {"details": "+28 days, herbicide Bifenox (with insecticide), Table 3.1"}, "[8]": {"details": "+28 days, herbicides Carbetamide and Propaquizafop, Table 3.2"}, "[9]": {"details": "Table 2.1, fungicide Prochloraz"}, "[10]": {"details": "Table 2.2, fungicide Flutriafol"}, "[11]": {"details": "Table 2.3, fungicides Fenpropidin and Flutriafol"}}, "note": "Read-outs that look alike come from different tables or passages of the source."}
{"smiles": "CC(=O)Nc1ccc(O)cc1", "note": "[AC, N-(4-hydroxypheyl)acetamide, reference compound]", "values": [{"measurement": "Phytotoxicity (0-9) + 28 Days", "setting": "[1]; score 0-9, 0 = dead, +28 days, herbicides Carbetamide and Propaquizafop, Table 3.2", "value": 8.0}, {"measurement": "Greenness (0-9) (9 = Deeper Green) + 14 Days", "setting": "[1]; [5]", "value": 8.0}, {"measurement": "Vigour (0-9) (9 = Most Vigour) + 14 days", "setting": "[1]; [5]", "value": 8.0}, {"measurement": "Greenness (0-9) (9 = Deeper Green) + 14 Days", "setting": "[1]; [6]", "value": 8.0}, {"measurement": "Vigour (0-9) (9 = Most Vigour) + 14 days", "setting": "[1]; [6]", "value": 8.0}, {"measurement": "Greenness (0-9) + 28 Days", "setting": "[1]; [7]", "value": 8.0}, {"measurement": "Vigour (0-9) + 28 Days", "setting": "[1]; [7]", "value": 8.0}, {"measurement": "Greenness (0-9) + 28 Days", "setting": "[1]; [8]", "value": 8.0}, {"measurement": "Vigour (0-9) + 28 Days", "setting": "[1]; [8]", "value": 8.0}, {"measurement": "Phytotoxicity (0-9) (0 = Dead) + 41 days", "setting": "[2]; scale 0-9, 0=dead, 9=least phytotoxicity, 41 days", "value": 8.0}, {"measurement": "Vigour (0-9) + 14 Days", "setting": "[2]; scale 0-9, 0=least vigour, 9=most vigour, 14 days", "value": 8.0}, {"measurement": "Vigour (0-9) + 28 Days", "setting": "[2]; scale 0-9, 0=least vigour, 9=most vigour, 28 days", "value": 8.0}, {"measurement": "Vigour (0-9) + 41 Days", "setting": "[2]; scale 0-9, 0=least vigour, 9=most vigour, 41 days", "value": 8.0}, {"measurement": "Nodules Per Plant (V1)", "setting": "Glycine max (Soybean); V1, mean of 12 plants", "value": 29.9}, {"measurement": "Nodulation Score (0-9) (V1)", "setting": "Glycine max (Soybean); V1, score 0-9", "value": 5.5}, {"measurement": "Phyto-Toxicity Score (0-9) (V1)", "setting": "Glycine max (Soybean); V1, score 0-9", "value": 8.0}, {"measurement": "Vigour Score (0-9) (V1)", "setting": "Glycine max (Soybean); V1, score 0-9", "value": 6.5}, {"measurement": "Nodules Per Plant (VC)", "setting": "Glycine max (Soybean); VC", "value": 32.0}, {"measurement": "Nod Score (0-9) (VC)", "setting": "Glycine max (Soybean); VC, score 0-9", "value": 5.7}, {"measurement": "Vigour (0-9) (9 = Most Vigour) + 14 days", "setting": "Winter Barley cv Saffron [3]; [9]", "value": 7.0}, {"measurement": "Vigour (0-9) + 28 Days", "setting": "Winter Barley cv Saffron [3]; [9]", "value": 8.0}, {"measurement": "Vigour (0-9) (9 = Most Vigour) + 14 days", "setting": "Winter Barley cv Saffron [3]; [10]", "value": 7.0}, {"measurement": "Vigour (0-9) + 28 Days", "setting": "Winter Barley cv Saffron [3]; [10]", "value": 8.0}, {"measurement": "Vigour (0-9) (9 = Most Vigour) + 14 days", "setting": "Winter Barley cv Saffron [3]; [11]", "value": 7.0}, {"measurement": "Vigour (0-9) + 28 Days", "setting": "Winter Barley cv Saffron [3]; [11]", "value": 8.0}, {"measurement": "Vigour (0-9) (9 = Most Vigour) + 14 days", "setting": "Winter Wheat cv Limerick; Table 2.4, winter wheat, fungicide Prochloraz, score 0-9, 9 = Most Vigour", "value": 7.0}, {"measurement": "Vigour (0-9) (9 = Most Vigour) + 14 days", "setting": "Winter Wheat cv Limerick; Table 2.5, winter wheat, fungicide Flutriafol, score 0-9, 9 = Most Vigour", "value": 7.0}, {"measurement": "Vigour (0-9) (9 = Most Vigour) + 14 days", "setting": "Winter Wheat cv Limerick; score 0-9, 9 = most vigour, foliar, fungicides Fenpropidin and Flutriafol, Table 2.6", "value": 7.0}, {"measurement": "Greenness (0-9) (9 = Deeper Green) + 14 Days", "setting": "Winter wheat cv Alchemy; Table 3.3, no herbicide", "value": 8.0}, {"measurement": "Greenness (0-9) + 28 Days", "setting": "Winter wheat cv Alchemy; Table 3.3, no herbicide", "value": 8.0}, {"measurement": "Phytotoxicity (0-9) + 28 Days", "setting": "Winter wheat cv Alchemy; Table 3.3, no herbicide", "value": 8.0}, {"measurement": "Greenness (0-9) (9 = Deeper Green) + 14 Days", "setting": "Winter wheat cv Alchemy; Table 3.4, no herbicide", "value": 8.0}, {"measurement": "Greenness (0-9) + 28 Days", "setting": "Winter wheat cv Alchemy; Table 3.4, no herbicide", "value": 8.0}, {"measurement": "Phytotoxicity (0-9) + 28 Days", "setting": "Winter wheat cv Alchemy; Table 3.4, no herbicide", "value": 8.0}, {"measurement": "Greenness (0-9) (9 = Deeper Green) + 14 Days", "setting": "Winter wheat cv Alchemy; Table 3.5, no herbicide", "value": 8.0}, {"measurement": "Greenness (0-9) + 28 Days", "setting": "Winter wheat cv Alchemy; Table 3.5, no herbicide", "value": 8.0}, {"measurement": "Phytotoxicity (0-9) + 28 Days", "setting": "Winter wheat cv Alchemy; Table 3.5, no herbicide", "value": 8.0}, {"measurement": "Vigour (0-9) (9 = Most Vigour) + 14 days", "setting": "Winter Barley cv Saffron [4]; 336 h", "value": 7.0}, {"measurement": "Vigour (0-9) + 28 Days", "setting": "Winter Barley cv Saffron [4]; 672 h", "value": 8.0}, {"measurement": "Vigour (0-9) (9 = Most Vigour) + 14 days", "setting": "Winter Barley cv Saffron [4]; Table 1.3, winter barley, general fertilisers, score 0-9, +14 days", "value": 7.0}, {"measurement": "Vigour (0-9) + 28 Days", "setting": "Winter Barley cv Saffron [4]; Table 1.3, winter barley, general fertilisers, score 0-9, +28 days", "value": 8.0}, {"measurement": "Vigour (0-9) (9 = Most Vigour) + 14 days", "setting": "Lettuce cv Set; 336 h", "value": 8.0}, {"measurement": "Vigour (0-9) + 28 Days", "setting": "Lettuce cv Set; 672 h", "value": 8.0}, {"measurement": "Vigour (0-9) (9 = Most Vigour) + 14 days", "setting": "Lettuce cv Set; Table 1.8, lettuce, KP/ATS, score 0-9, +14 days", "value": 8.0}, {"measurement": "Vigour (0-9) + 28 Days", "setting": "Lettuce cv Set; Table 1.8, lettuce, KP/ATS, score 0-9, +28 days", "value": 8.0}, {"measurement": "Vigour (0-9) (9 = Most Vigour) + 14 days", "setting": "Lettuce cv Set; Table 1.9, lettuce, general fertilisers, score 0-9, 9 = Most Vigour, +14 days", "value": 8.0}, {"measurement": "Vigour (0-9) + 28 Days", "setting": "Lettuce cv Set; Table 1.9, lettuce, general fertilisers, score 0-9, +28 days", "value": 8.0}, {"measurement": "Phytotoxicity (0-9) (0 = Dead) + 14 Days", "setting": "Lettuce cv Set; in vivo", "value": 7.0}, {"measurement": "Phytotoxicity (0-9) (0 = Dead) + 28 Days", "setting": "Lettuce cv Set; in vivo", "value": 6.5}]}
